{"source": "paper PMC6100082", "about": "“Pyridine-Ureas as Potential Anticancer Agents: Synthesis and In Vitro Biological Evaluation” (Molecules : A Journal of Synthetic Chemistry and Natural …, 2018)", "type_in_all_cases": "cell-based, human", "key": {"[1]": {"tested_on": "breast cancer MCF-7 cell line", "experiment": "In vitro anti-proliferative activity, MTT assay", "settings": "MCF-7, MTT", "procedure,_shortened": "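Growth inhibition was read colorimetrically by MTT, run in triplicate and averaged over at least three independent experiments. The cells were maintained in DMEM supplemented with 10 μg/mL insulin, 10% heat-inactivated FBS and 1% penicillin-streptomycin.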"}, "LOX IMVI": {"tested_on": "LOX IMVI", "experiment": "NCI one-dose SRB assay (Melanoma)", "procedure,_shortened": "(§1)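 Human cancer cells are exposed for 48 h to one dose (10^−5 M) of test compound, then cell growth is measured by SRB protein assay. Data appear as GI%.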"}, "M14": {"tested_on": "M14", "experiment": "NCI one-dose SRB assay (Melanoma)", "procedure,_shortened": "as §1"}, "MALME-3M": {"tested_on": "MALME-3M", "experiment": "NCI one-dose SRB assay (Melanoma)", "procedure,_shortened": "as §1"}, "MDA-MB-435": {"tested_on": "MDA-MB-435", "experiment": "NCI one-dose SRB assay (Melanoma)", "procedure,_shortened": "as §1"}, "SK-MEL-28": {"tested_on": "SK-MEL-28", "experiment": "NCI one-dose SRB assay (Melanoma)", "procedure,_shortened": "as §1"}, "SK-MEL-2": {"tested_on": "SK-MEL-2", "experiment": "NCI one-dose SRB assay (Melanoma)", "procedure,_shortened": "as §1"}, "SK-MEL-5": {"tested_on": "SK-MEL-5", "experiment": "NCI one-dose SRB assay (Melanoma)", "procedure,_shortened": "as §1"}, "UACC-257": {"tested_on": "UACC-257", "experiment": "NCI one-dose SRB assay (Melanoma)", "procedure,_shortened": "as §1"}, "UACC-62": {"tested_on": "UACC-62", "experiment": "NCI one-dose SRB assay (Melanoma)", "procedure,_shortened": "as §1"}, "IGROV1": {"tested_on": "IGROV1", "experiment": "NCI one-dose SRB assay (Ovarian Cancer)", "procedure,_shortened": "as §1"}, "NCI/ADR-RES": {"tested_on": "NCI/ADR-RES", "experiment": "NCI one-dose SRB assay (Ovarian Cancer)", "procedure,_shortened": "as §1"}, "OVCAR-3": {"tested_on": "OVCAR-3", "experiment": "NCI one-dose SRB assay (Ovarian Cancer)", "procedure,_shortened": "as §1"}, "OVCAR-4": {"tested_on": "OVCAR-4", "experiment": "NCI one-dose SRB assay (Ovarian Cancer)", "procedure,_shortened": "as §1"}, "OVCAR-5": {"tested_on": "OVCAR-5", "experiment": "NCI one-dose SRB assay (Ovarian Cancer)", "procedure,_shortened": "as §1"}, "OVCAR-8": {"tested_on": "OVCAR-8", "experiment": "NCI one-dose SRB assay (Ovarian Cancer)", "procedure,_shortened": "as §1"}, "SK-OV-3": {"tested_on": "SK-OV-3", "experiment": "NCI one-dose SRB assay (Ovarian Cancer)", "procedure,_shortened": "as §1"}, "BT-549": {"tested_on": "BT-549", "experiment": "NCI one-dose SRB assay (Breast Cancer)", "procedure,_shortened": "as §1"}, "HS 578T": {"tested_on": "HS 578T", "experiment": "NCI one-dose SRB assay (Breast Cancer)", "procedure,_shortened": "as §1"}, "MCF7": {"tested_on": "MCF7", "experiment": "NCI one-dose SRB assay (Breast Cancer)", "procedure,_shortened": "as §1"}, "MDA-MB-231": {"tested_on": "MDA-MB-231", "experiment": "NCI one-dose SRB assay (Breast Cancer)", "procedure,_shortened": "as §1"}, "MDA-MB-468": {"tested_on": "MDA-MB-468", "experiment": "NCI one-dose SRB assay (Breast Cancer)", "procedure,_shortened": "as §1"}, "T-47D": {"tested_on": "T-47D", "experiment": "NCI one-dose SRB assay (Breast Cancer)", "procedure,_shortened": "as §1"}, "[2]": {"settings": "Homo sapiens, 10 μM, read-out: Percentage growth inhibition (GI%)"}}, "note": "Read-outs that look alike come from different tables or passages of the source.", "data": [{"molecule": "COc1ccc(-c2ccc(NC(=O)Nc3cccc(Cl)c3)c(C)n2)cc1OC", "note": "[Compound 8j, 1-(3-Chlorophenyl)-3-(6-(3,4-dimethoxyphenyl)-2-methylpyridin-3-yl) Urea]", "values": [{"measurement": "IC50", "setting": "[1]; Homo sapiens, MCF7, 48 h, 48 h of incubation, read-out: IC50 48 h", "value": 10.1, "unit": "µM"}, {"measurement": "IC50", "setting": "[1]; Homo sapiens, MCF7, 72 h, 72 h of incubation, read-out: IC50 72 h", "value": "26.2 ± 2.17", "unit": "µM"}, {"measurement": "IC50", "setting": "[1]; 48 h of incubation, read-out: IC50 48 h", "value": "10.9 ± 1.03", "unit": "µM"}, {"measurement": "Growth Percent", "setting": "LOX IMVI; 1.00E-5 Molar", "value": 80.89, "unit": "%"}, {"measurement": "inhibition at 10 µM", "setting": "LOX IMVI; [2]", "value": 20, "unit": "%"}, {"measurement": "inhibition at 10 µM", "setting": "M14; Homo sapiens, M14, 10 μM, read-out: Percentage growth inhibition (GI%)", "value": 50, "unit": "%"}, {"measurement": "Growth Percent", "setting": "M14; M14, 1.00E-5 Molar", "value": 50.80, "unit": "%"}, {"measurement": "Growth Percent", "setting": "MALME-3M; 1.00E-5 Molar", "value": 98.93, "unit": "%"}, {"measurement": "inhibition at 10 µM", "setting": "MALME-3M; [2]", "value": "< 10", "unit": "%"}, {"measurement": "inhibition at 10 µM", "setting": "MDA-MB-435; Homo sapiens, MDA-MB-435, 10 μM, read-out: Percentage growth inhibition (GI%)", "value": 13, "unit": "%"}, {"measurement": "Growth Percent", "setting": "MDA-MB-435; MDA-MB-435, 1.00E-5 Molar", "value": 87.66, "unit": "%"}, {"measurement": "inhibition at 10 µM", "setting": "SK-MEL-28; Homo sapiens, SK-MEL-28, 10 μM, read-out: Percentage growth inhibition (GI%)", "value": 21, "unit": "%"}, {"measurement": "Growth Percent", "setting": "SK-MEL-28; SK-MEL-28, 1.00E-5 Molar", "value": 79.52, "unit": "%"}, {"measurement": "inhibition at 10 µM", "setting": "SK-MEL-2; Homo sapiens, SK-MEL-2, 10 μM, read-out: Percentage growth inhibition (GI%)", "value": 16, "unit": "%"}, {"measurement": "Growth Percent", "setting": "SK-MEL-2; SK-MEL-2, 1.00E-5 Molar", "value": 84.73, "unit": "%"}, {"measurement": "inhibition at 10 µM", "setting": "SK-MEL-5; Homo sapiens, SK-MEL-5, 10 μM, read-out: Percentage growth inhibition (GI%)", "value": 32, "unit": "%"}, {"measurement": "Growth Percent", "setting": "SK-MEL-5; SK-MEL-5, 1.00E-5 Molar", "value": 68.63, "unit": "%"}, {"measurement": "inhibition at 10 µM", "setting": "UACC-257; Homo sapiens, UACC-257, 10 μM, read-out: Percentage growth inhibition (GI%)", "value": 29, "unit": "%"}, {"measurement": "Growth Percent", "setting": "UACC-257; UACC-257, 1.00E-5 Molar", "value": 71.26, "unit": "%"}, {"measurement": "inhibition at 10 µM", "setting": "UACC-62; Homo sapiens, UACC-62, 10 μM, read-out: Percentage growth inhibition (GI%)", "value": 25, "unit": "%"}, {"measurement": "Growth Percent", "setting": "UACC-62; UACC-62, 1.00E-5 Molar", "value": 75.01, "unit": "%"}, {"measurement": "inhibition at 10 µM", "setting": "IGROV1; Homo sapiens, IGROV-1, IGROV1, 10 μM, read-out: Percentage growth inhibition (GI%)", "value": "< 10", "unit": "%"}, {"measurement": "Growth Percent", "setting": "IGROV1; IGROV1, 1.00E-5 Molar", "value": 100.28, "unit": "%"}, {"measurement": "Growth Percent", "setting": "NCI/ADR-RES; 1.00E-5 Molar", "value": 84.81, "unit": "%"}, {"measurement": "inhibition at 10 µM", "setting": "NCI/ADR-RES; [2]", "value": 16, "unit": "%"}, {"measurement": "inhibition at 10 µM", "setting": "OVCAR-3; Homo sapiens, OVCAR-3, 10 μM, read-out: Percentage growth inhibition (GI%)", "value": 10, "unit": "%"}, {"measurement": "Growth Percent", "setting": "OVCAR-3; OVCAR-3, 1.00E-5 Molar", "value": 90.37, "unit": "%"}, {"measurement": "inhibition at 10 µM", "setting": "OVCAR-4; Homo sapiens, OVCAR-4, 10 μM, read-out: Percentage growth inhibition (GI%)", "value": "< 10", "unit": "%"}, {"measurement": "Growth Percent", "setting": "OVCAR-4; OVCAR-4, 1.00E-5 Molar", "value": 91.75, "unit": "%"}, {"measurement": "inhibition at 10 µM", "setting": "OVCAR-5; Homo sapiens, OVCAR-5, 10 μM, read-out: Percentage growth inhibition (GI%)", "value": 12, "unit": "%"}, {"measurement": "Growth Percent", "setting": "OVCAR-5; OVCAR-5, 1.00E-5 Molar", "value": 88.21, "unit": "%"}, {"measurement": "inhibition at 10 µM", "setting": "OVCAR-8; Homo sapiens, OVCAR-8, 10 μM, read-out: Percentage growth inhibition (GI%)", "value": 10, "unit": "%"}, {"measurement": "Growth Percent", "setting": "OVCAR-8; OVCAR-8, 1.00E-5 Molar", "value": 90.16, "unit": "%"}, {"measurement": "inhibition at 10 µM", "setting": "SK-OV-3; Homo sapiens, SK-OV-3, 10 μM, read-out: Percentage growth inhibition (GI%)", "value": 17, "unit": "%"}, {"measurement": "Growth Percent", "setting": "SK-OV-3; SK-OV-3, 1.00E-5 Molar", "value": 83.62, "unit": "%"}, {"measurement": "Growth Percent", "setting": "BT-549; BT-549, 1.00E-5 Molar", "value": 91.71, "unit": "%"}, {"measurement": "inhibition at 10 µM", "setting": "BT-549; Homo sapiens, BT-549, 10 μM, read-out: Percentage growth inhibition (GI%)", "value": "< 10", "unit": "%"}, {"measurement": "Growth Percent", "setting": "HS 578T; 1.00E-5 Molar", "value": 95.46, "unit": "%"}, {"measurement": "inhibition at 10 µM", "setting": "HS 578T; [2]", "value": "< 10", "unit": "%"}, {"measurement": "inhibition at 10 µM", "setting": "MCF7; Homo sapiens, MCF7, 10 μM, read-out: Percentage growth inhibition (GI%)", "value": 25, "unit": "%"}, {"measurement": "Growth Percent", "setting": "MCF7; MCF7, 1.00E-5 Molar", "value": 75.86, "unit": "%"}, {"measurement": "inhibition at 10 µM", "setting": "MDA-MB-231; Homo sapiens, MDA-MB-231, 10 μM, read-out: Percentage growth inhibition (GI%)", "value": 13, "unit": "%"}, {"measurement": "Growth Percent", "setting": "MDA-MB-231; MDA-MB-231/ATCC, 1.00E-5 Molar", "value": 87.05, "unit": "%"}, {"measurement": "inhibition at 10 µM", "setting": "MDA-MB-468; Homo sapiens, MDA-MB-468, 10 μM, read-out: Percentage growth inhibition (GI%)", "value": 29, "unit": "%"}, {"measurement": "Growth Percent", "setting": "MDA-MB-468; MDA-MB-468, 1.00E-5 Molar", "value": 71.36, "unit": "%"}, {"measurement": "Growth Percent", "setting": "T-47D; 1.00E-5 Molar", "value": 49.90, "unit": "%"}, {"measurement": "inhibition at 10 µM", "setting": "T-47D; Homo sapiens, T47D, 10 μM, read-out: Percentage growth inhibition (GI%)", "value": 51, "unit": "%"}]}]}
